Legend:
Assay in all cases: cell-based
PTGER2 (EP2) = PTGER2 (EP2) (Homo sapiens, UniProt P43116)
Description: (§1) The assay is using the PathHunter™ HEK 293 PTGER2 and PTGER4 b-arrestin cell lines from DiscoverX. The system is based on the Enzyme Fragment Complementation Technology. Two complementing fragments of the b-galactosidase enzyme are expressed within stably transfected cells. The larger portion of b-gal, termed EA for Enzyme Acceptor, is fused to the C-terminus of b-arrestin 2. The smaller fragment, termed ProLink™ tag, is fused to PTGER2 (EP2) or PTRGER4 (EP4) at the C-terminus. Upon activation, b-arrestin is recruited which forces the interaction of ProLink and EA, allowing complementation of the two fragments of b-gal and the formation of a functional enzyme which is capable of hydrolysing the substrate and generating a chemiluminescent signal.
The HEK 293 PTGER2 b-arrestin cells (DiscoverX 93-021-4C1) are detached from culture dishes with a cell dissociation buffer (Invitrogen, 13151-014), and collected in growing medium (GM: DMEM+Glutamax-I (Invitrogen 32430)/10% FCS, 1% Penicilin/streptomycin). 5000 cells per well of a 384 well plate (white with white bottom Greiner 781080) are seeded in 20 ul per well of GM. Plate is incubated at 37° C., 5% CO2 for 24 hours.
(§2) Stock solutions of test compounds are made at a concentration of 10 mM in DMSO, and serially diluted in DMSO to concentrations required for inhibition dose response curves (tested concentration range 10 μM-2 nM or 1 μM-0.2 nM).
PGE2 (Cayman 14010, stock solution: 10 mM in DMSO) is used as agonist at 5 μM final concentration, corresponding to EC80.
Five microliters of diluted compounds are transferred into the assay plate. Plate is pre-incubated 15 minutes at 37° C. Then five microliters of PGE2 (final conc. 5 μM) are transferred into the assay plate. Plate is incubated 120 minutes at 37° C.
Twelve μl of reagent are transferred to the assay plate and incubate for 1 hour at room temperature in the dark. Luminescence counts are read on a BMG Fluostar Optima reader according to manufacturer's instructions.
(§3) For each compound concentration calculate of the percentage of activity compared to DMSO control value as average±STDEV. (each concentration is measured in duplicate)
(§4) When compounds were measured multiple times, mean values are given.

PTRGER4 (EP4) = PTRGER4 (EP4) (Homo sapiens, UniProt P35408);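 also: assay plate preincubated 15 min at 37 °C, after which PGE2 was added at 20 nM final and incubation continued 120 min at 37 °C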
Description: as §1
The HEK 293 PTGER4 b-arrestin cells (DiscoverX 93-030-4C1) are detached from culture dishes with a cell dissociation buffer (Invitrogen, 13151-014), and collected in growing medium (GM: DMEM+Glutamax-I (Invitrogen 32430)/10% FCS, 1% Penicilin/streptomycin). 5000 cells per well of a 384 well plate (white with white bottom Greiner 781080) are seeded in 20 ul per well of GM. Plate is incubated at 37° C., 5% CO2 for 24 hours.
as §2
PGE2 (Cayman 14010, stock solution: 100 uM in DMSO) is used as agonist at 20 nM final concentration, corresponding to EC80.
Five microliters of diluted compounds are transferred into the assay plate. Plate is pre-incubated 15 minutes at 37° C. Then five microliters of PGE2 (final conc. 20 nM) are transferred into the assay plate. Plate is incubated 120 minutes at 37° C.
Twelve μl of reagent are transferred to the assay plate and incubate for 1 hour at room temperature in the dark. Luminescence counts are read on a BMG Fluostar Optima reader according to manufacturers instructions.
as §3, §4

EP4 = EP4 (Homo sapiens, UniProt P35408);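 also: inhibition of PGE2-evoked (6 nM) cAMP accumulation in BT549 breast cancer cells endogenously expressing EP4, cAMP read by HTRF competitive immunoassay after 30 min at room temperature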
Sequence of EP4 (P35408 whole entry): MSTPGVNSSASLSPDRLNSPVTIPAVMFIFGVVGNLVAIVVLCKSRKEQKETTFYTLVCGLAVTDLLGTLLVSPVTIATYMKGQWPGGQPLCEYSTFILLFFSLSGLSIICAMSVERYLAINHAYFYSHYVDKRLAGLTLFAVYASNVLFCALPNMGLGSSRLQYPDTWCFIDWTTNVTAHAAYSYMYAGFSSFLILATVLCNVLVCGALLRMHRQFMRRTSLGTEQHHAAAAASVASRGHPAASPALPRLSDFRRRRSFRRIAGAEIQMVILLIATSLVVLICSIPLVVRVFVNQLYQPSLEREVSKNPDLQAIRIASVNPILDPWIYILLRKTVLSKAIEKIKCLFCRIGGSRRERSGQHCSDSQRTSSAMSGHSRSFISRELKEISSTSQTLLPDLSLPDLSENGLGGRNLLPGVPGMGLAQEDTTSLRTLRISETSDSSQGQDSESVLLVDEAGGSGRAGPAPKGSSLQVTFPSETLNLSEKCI

EP2 = EP2 (Homo sapiens, UniProt P43116);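 also: SF295 glioblastoma cells with endogenous EP2 only, PGE2-stimulated cAMP accumulation read by HTRF competitive immunoassay, 45 min pre-incubation then 30 min at room temperature, IBMX in buffer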
Sequence of EP2 (P43116 whole entry): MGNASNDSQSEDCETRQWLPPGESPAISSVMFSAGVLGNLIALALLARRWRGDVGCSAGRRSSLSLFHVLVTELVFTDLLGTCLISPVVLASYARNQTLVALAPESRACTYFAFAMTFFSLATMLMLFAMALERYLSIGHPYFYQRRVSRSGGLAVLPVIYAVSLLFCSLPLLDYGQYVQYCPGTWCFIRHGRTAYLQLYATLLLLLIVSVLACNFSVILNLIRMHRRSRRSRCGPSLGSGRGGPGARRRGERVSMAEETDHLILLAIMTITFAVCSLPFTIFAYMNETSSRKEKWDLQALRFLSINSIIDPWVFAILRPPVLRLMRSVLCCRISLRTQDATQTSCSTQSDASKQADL

Sequence of PTGER2 (EP2) (P43116 whole entry): as above
Sequence of PTRGER4 (EP4) (P35408 whole entry): as the sequence (P35408 whole entry) above

| Compound | IC50 (PTGER2 (EP2)) | IC50 (PTRGER4 (EP4)) | IC50 (EP4) | IC50 (EP2) |
| --- | --- | --- | --- | --- |
| Cc1cc(-c2cc(NCCc3c(F)cc(Br)cc3F)ncn2)cc(C)c1O [Example 250, 4-{6-[2-(4-Bromo-2,6-difluoro-phenyl)-ethylamino]-pyrimidin-4-yl}-2,6-dimethyl-phenol] | 78 nM | 169 nM | 887 nM | 856 nM |
| O=C(O)Cc1ccc(-c2cc(NCCc3c(F)cc(Br)cc3F)ncn2)cc1OC(F)F [Example 252, (4-{6-[2-(4-Bromo-2,6-difluoro-phenyl)-ethylamino]-pyrimidin-4-yl}-2-difluoromethoxy-phenyl)-acetic acid] | 214 nM | 484 nM | 959 nM | 1910 nM |
| O=C(O)c1ccc(-c2cc(NCCc3c(F)cc(Br)cc3F)ncn2)cc1OC1CC1 [Example 259, 4-{6-[2-(4-Bromo-2,6-difluoro-phenyl)-ethylamino]-pyrimidin-4-yl}-2-cyclopropoxy-benzoic acid] | 46 nM | 351 nM | 76 nM | 45 nM |
| CCc1cc(-c2cc(NCCc3c(F)cc(Br)cc3F)ncn2)sc1CC(=O)O [Example 261, (5-{6-[2-(4-Bromo-2,6-difluoro-phenyl)-ethylamino]-pyrimidin-4-yl}-3-ethyl-thiophen-2yl)-acetic acid] | 58 nM | 42 nM | 101 nM | 165 nM |
| O=C(O)c1cccc2cc(-c3cc(NCCc4c(F)cc(Br)cc4F)ncn3)[nH]c12 [Example 263, 2-{6-[2-(4-Bromo-2,6-difluoro-phenyl)-ethylamino]-pyrimidin-4-yl}-1H-indole-7-carboxylic acid] | 31 nM | 73 nM | 73 nM | 167 nM |
| CCOc1cc(-c2cc(NCCc3c(F)cc(Br)cc3F)ncn2)[nH]c1C(=O)O [Example 268, 5-{6-[2-(4-Bromo-2,6-difluoro-phenyl)-ethylamino]-pyrimidin-4-yl}-3-ethoxy-1H-pyrrole-2-carboxylic acid] | 19 nM | 294 nM | 225 nM | 21 nM |
| O=C(O)c1[nH]c(-c2cc(NCCc3c(F)cc(Br)cc3F)ncn2)cc1C1CC1 [Example 271, 5-{6-[2-(4-Bromo-2,6-difluoro-phenyl)-ethylamino]-pyrimidin-4-yl}-3-cyclopropyl-1H-pyrrole-2-carboxylic acid] | 36 nM | 380 nM | 1760 nM | 151 nM |
| CCOc1cc(-c2cc(NCCc3c(F)cc(Br)cc3F)ncn2)ccc1-c1cc(O)no1 [Example 273, 5-(4-{6-[2-(4-Bromo-2,6-difluoro-phenyl)-ethylamino]-pyrimidin-4-yl}-2-ethoxy-phenyl)-isoxazol-3-ol] | 45 nM | 56 nM | 211 nM | 364 nM |
| CCOc1cc(-c2cc(NCCc3cc(Br)ccc3SC)ncn2)sc1-c1noc(=O)[nH]1 [Example 275, 3-(5-{6-[2-(5-Bromo-2-methylsulfanyl-phenyl)-ethylamino]-pyrimidin-4-yl}-3-ethoxy-thiophen-2-yl)-[1,2,4]oxadiazol-5(4H)-one] | 125 nM | 90 nM | 18 nM | 163 nM |
| CNc1cc(-c2cc(NCCc3c(F)cc(Br)cc3F)ncn2)ccc1C(=O)NCCO [Example 276, 4-{6-[2-(4-Bromo-2,6-difluoro-phenyl)-ethylamino]-pyrimidin-4-yl}-N-(2-hydroxy-ethyl)-2-methylamino-benzamide] | 23 nM | 37 nM | 72 nM | 59 nM |
| CNc1cc(-c2cc(NCCc3c(F)cc(Br)cc3F)ncn2)ccc1C(=O)NCCOC [Example 277, 4-{6-[2-(4-Bromo-2,6-difluoro-phenyl)-ethylamino]-pyrimidin-4-yl}-N-(2-methoxy-ethyl)-2-methylamino-benzamide] | 74 nM | 68 nM | 241 nM | 221 nM |
| CCn1cc(-c2cc(NCCc3c(F)cc(Br)cc3F)ncn2)cc1-c1noc(=O)[nH]1 [Example 278] | 64 nM | 42 nM | 89 nM | 150 nM |
| CCOc1cc(-c2cc(NCCc3c(F)cc(Br)cc3F)ncn2)sc1C(N)=O [Example 279, 5-{6-[2-(4-Bromo-2,6-difluoro-phenyl)-ethylamino]-pyrimidin-4-yl}-3-ethoxy-thiophene-2-carboxylic acid amide] | 46 nM | 5 nM | 12 nM | 72 nM |
| CCc1cc(-c2cc(NCCc3c(F)cc(Br)cc3F)ncn2)sc1C(N)=O [Example 281, 5-{6-[2-(4-Bromo-2,6-difluoro-phenyl)-ethylamino]-pyrimidin-4-yl}-3-ethyl-thiophene-2-carboxylic acid amide] | 56 nM | 37 nM | 81 nM | 47 nM |
| CCOc1cc(-c2cc(NCCc3c(F)cc(Br)cc3F)ncn2)ccc1Cc1noc(=O)[nH]1 [Example 282, 3-(4-{6-[2-(4-Bromo-2,6-difluoro-phenyl)-ethylamino]-pyrimidin-4-yl}-2-ethoxy-benzyl)-[1,2,4]oxadiazol-5(4H)-one] | 135 nM | 83 nM | 380 nM | 1030 nM |
| CCOc1cc(-c2cc(NCCc3c(F)cc(Br)cc3F)ncn2)ccc1Cc1noc(=S)[nH]1 [Example 283, 3-(4-{6-[2-(4-Bromo-2,6-difluoro-phenyl)-ethylamino]-pyrimidin-4-yl}-2-ethoxy-benzyl)-[1,2,4]oxadiazole-5(4H)-thione] | 118 nM | 245 nM | 595 nM | 959 nM |
| O=c1[nH]c(-c2ccc(-c3cc(NCCc4c(F)cc(Br)cc4F)ncn3)cn2)no1 [Example 289, 3-(5-{6-[2-(4-Bromo-2,6-difluoro-phenyl)-ethylamino]-pyrimidin-4-yl}-pyridin-2-yl)-[1,2,4]oxadiazol-5(4H)-one] | 80 nM | 308 nM | 320 nM | 234 nM |
| COc1cc(-c2noc(=O)[nH]2)ccc1-c1cc(NCCc2c(F)cc(Br)cc2F)ncn1 [Example 291, 3-(4-{6-[2-(4-Bromo-2,6-difluoro-phenyl)-ethylamino]-pyrimidin-4-yl}-3-methoxy-phenyl)-[1,2,4]oxadiazol-5(4H)-one] | 88 nM | 77 nM | 154 nM | 774 nM |
| CCOc1c(C(N)=O)sc(-c2cc(NCCc3c(F)cc(Br)cc3F)ncn2)c1Cl [Example 293, 5-{6-[2-(4-Bromo-2,6-difluoro-phenyl)-ethylamino]-pyrimidin-4-yl}-4-chloro-3-ethoxy-thiophene-2-carboxylic acid amide] | 138 nM | 41 nM | 326 nM | 900 nM |
| CCOc1cc(-c2cc(NCCc3c(F)cc(Br)cc3F)ncn2)sc1-n1nn[nH]c1=O [Example 294, 1-(5-{6-[2-(4-Bromo-2,6-difluoro-phenyl)-ethylamino]-pyrimidin-4-yl}-3-ethoxy-thiophen-2-yl)-1,4-dihydro-tetrazol-5-one] | 27 nM | 18 nM | 22 nM | 47 nM |
| CCOc1cc(-c2cc(NCCc3c(F)cc(Br)cc3F)ncn2)sc1-c1noc(=S)[nH]1 [Example 295, 3-(5-{6-[2-(4-Bromo-2,6-difluoro-phenyl)-ethylamino]-pyrimidin-4-yl}-3-ethoxy-thiophen-2-yl)-[1,2,4]oxadiazole-5(4H)-thione] | 12 nM | 2 nM | 2 nM | 84 nM |
| CNc1cc(-c2cc(NCCc3c(F)cc(Br)cc3F)ncn2)ccc1-c1noc(=O)[nH]1 [Example 296, 3-(4-{6-[2-(4-Bromo-2,6-difluoro-phenyl)-ethylamino]-pyrimidin-4-yl}-2-methylamino-phenyl)-[1,2,4]oxadiazol-5(4H)-one] | 12 nM | 9 nM | 14 nM | 44 nM |
| CCCc1cc(-c2cc(NCCc3c(F)cc(Br)cc3F)ncn2)sc1CC(=O)O [Example 314, (5-{6-[2-(4-Bromo-2,6-difluoro-phenyl)-ethylamino]-pyrimidin-4-yl}-3-propyl-thiophen-2-yl)-acetic acid] | 55 nM | 61 nM | 27 nM | 169 nM |
| O=C(O)Cc1sc(-c2cc(NCCc3c(F)cc(Br)cc3F)ncn2)cc1OC(F)F [Example 315, (5-{6-[2-(4-Bromo-2,6-difluoro-phenyl)-ethylamino]-pyrimidin-4-yl}-3-difluoromethoxy-thiophen-2-yl)-acetic acid] | 25 nM | 38 nM | 28 nM | 17 nM |
